The values that follow come from US20020132817A1, “Heterocyclic compounds, their production and use” (priority 1998, published 2002).

One data set deals with T1, substance P receptor (Homo sapiens, UniProt P25103).
T1 construct: The receptor was prepared from human lymphoblast cells (IM-9); endogenous in cells; host or cells: IM-9 human lymphoblast cells (membrane preparation)
Put plainly: Radioligand receptor binding inhibitory activity using receptor from human lymphoblast cells (IM-9). The following applies: 125I-BHSP radioligand, receptor from IM-9 cells, 25° C. for 30 minutes. As for the experimental part: Radioligand receptor binding inhibitory activity Binding inhibitory activity using receptor from human lymphoblast cells (IM-9)
The receptor was prepared from human lymphoblast cells (IM-9). IM-9 cells (2×10^5 cells/ml) were inoculated and incubated for 3 days (one liter), which was then subjected to centrifuge for 5 minutes at 500×g to obtain cell pellets. […] The residue was washed twice with 30 ml of the above-mentioned buffer, which was then preserved frozen (−80° C.) as a specimen of the receptor.
The specimen was suspended in a reaction buffer (50 mM Tri-HCl buffer (pH 7.4), 0.02% bovine serum albumin, 1 mM phenylmethylsulfonyl fluoride, […], […] bacitracin, 3 mM manganese chloride) and 100 ul portion was the suspension was used in the reaction. […] The amount of nonspecific binding was determined by adding substance P at a final concentration of 2×10^−6M. After the reaction, using a cell harvester (290 PHD, Cambridge Technology, Inc, U.S.A.), rapid filtration was carried out through a glass filter (GF/B, Whatman, U.S.A.) to stop the reaction. After washing three times with 250 ul of 50 mM of Tris-HCl buffer (pH 7.4) containing 0.02% bovine serum albumin, the radioactivity remaining on the filter was determined with a gamma counter. Before use, the filter was immersed in 0.1% polyethyleneimine for 24 hours and air-dried.

Data set [1] relates to plasma extravasation induced by capsaicin in trachea of guinea pigs. Put plainly: Inhibitory effect on plasma extravasation induced by capsaicin in trachea of guinea pigs. The data set is classed as in vivo. Particulars: for ED50: Cavia porcellus, iv, 5 minutes before capsaicin, Evans' blue dye in trachea, read-out: ID50, μg/kg, i.v. On the procedure: Guinea pigs (Hartley type white male guinea pige), (n=6) were anesthetized with 35 mg/kg of pentobarbital injected intraperitoneally (i.p.), then test compounds were administered intravenously (i.v.). After 5 minutes, a mixed solution of capsaicin ([…]) and Evans' blue dye (20 mg/kg) was administered intravenously to cause reaction. Ten minutes later, test animals were sacrificed by cutting the aorta, then perfused through pulmonary artery with 50 ml of physiological saline. The trachea was excised, and its wet weight was measure. The trachea was incubated at room temperature in 1 ml of acetone-0.3% sodium sulfate (7:3) overnight and Evans' blue dye was extracted from the trachea. The extract solution was centrifuged at 2800 rpm for 5 minutes. The amount of Evans' blue dye in the supernatant was quantified by measuring absorbance at […].
The reaction of accelerating the permeability of blood vessels is expressed in terms of the amount of Evans' blue (μg) per trachea unit weight (g) and the effect of drug was evaluated by calculating the degree of inhibition (% inhibition) according to the following equation: […]

The target in another data set is T2, human NK2 receptor (Homo sapiens, UniProt P21452).
T2 construct: expressed in transfected cells; host or cells: COS-7 cells, transient transfection with an SRa-promoter expression vector; membrane preparation
T2 sequence (P21452 1-398): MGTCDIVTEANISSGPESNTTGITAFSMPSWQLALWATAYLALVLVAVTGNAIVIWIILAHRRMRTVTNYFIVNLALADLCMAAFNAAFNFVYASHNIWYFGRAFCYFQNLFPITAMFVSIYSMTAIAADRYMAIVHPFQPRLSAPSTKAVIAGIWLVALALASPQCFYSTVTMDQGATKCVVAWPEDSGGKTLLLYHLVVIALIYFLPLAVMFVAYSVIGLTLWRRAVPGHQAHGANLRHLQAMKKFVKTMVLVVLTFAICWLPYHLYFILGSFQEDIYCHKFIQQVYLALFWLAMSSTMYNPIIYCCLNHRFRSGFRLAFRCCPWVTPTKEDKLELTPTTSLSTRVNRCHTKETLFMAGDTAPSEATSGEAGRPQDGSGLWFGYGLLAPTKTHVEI
Put plainly: Binding inhibitory activity toward human NK2 receptor. Particulars: (2-[125I]iodohistidyl1)Neurokinin A 0.1 nM, receptor expressed in COS-7 cells, room temperature 60 min.

Marks after values point to notes of the source that are not given here.

T1 sequence (P25103 whole entry): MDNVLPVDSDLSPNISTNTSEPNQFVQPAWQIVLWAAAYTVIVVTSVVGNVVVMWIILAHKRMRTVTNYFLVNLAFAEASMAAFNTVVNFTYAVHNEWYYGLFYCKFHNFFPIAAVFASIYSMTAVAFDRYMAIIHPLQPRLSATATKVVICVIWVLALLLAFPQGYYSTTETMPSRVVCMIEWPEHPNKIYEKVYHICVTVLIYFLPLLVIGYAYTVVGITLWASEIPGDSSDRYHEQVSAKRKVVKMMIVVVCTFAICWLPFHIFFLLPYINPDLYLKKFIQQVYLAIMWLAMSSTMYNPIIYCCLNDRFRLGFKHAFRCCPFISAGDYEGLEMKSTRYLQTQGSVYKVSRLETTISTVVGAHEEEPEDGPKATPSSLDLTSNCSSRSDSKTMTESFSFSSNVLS

One may read the IC50 as the concentration that inhibits the measured activity by half. The term melting point denotes the temperature of the solid-liquid transition. For `Cc1ccc(-c2c3n(c(=O)c4ncccc24)CCCN(Cc2cc(C(F)(F)F)cc(C(F)(F)F)c2)C3=O)cc1` [Reference Example 56, 7-[3,5-Bis(trifluoromethyl)benzyl]-6,7,8,9,10,12-hexahydro-5-(4-methylphenyl)-6,12-dioxo[1,4]diazepino[2,1-g][1,7]naphthyridine], the melting point was 194 to 195 °C. Besides, on substance P receptor, the IC50 stood at 0.28 nM. In addition, in data set [1], the ED50 was 7.2 µg/kg.
On to `O=C1c2c(-c3ccccc3)c3cccnc3c(=O)n2CCCCN1Cc1cc(C(F)(F)F)cc(C(F)(F)F)c1` [Reference Example 62, 7-[3,5-Bis(trifluoromethyl)benzyl]-6,7,8,9,10,11-hexahydro-6,13-dioxo-5-phenyl-13H-[1,4]diazocino[2,1-g][1,7]naphthyridine], for which the IC50 at substance P receptor stood at 1.2 nM. In data set [1], the ED50 was 3.2 µg/kg.
For the molecule `C[C@H]1CN(Cc2cc(C(F)(F)F)cc(C(F)(F)F)c2)C(=O)c2c(-c3ccccc3)c3cccnc3c(=O)n2C1` [Reference Example 67, (9S)-7-[3,5-Bis(trifluoromethyl)benzyl]-6,7,8,9,10,12-hexahydro-9-methyl-6,12-dioxo-5-phenyl[1,4]diazepino[2,1-g][1,7]naphthyridine], the melting point is 150 to 152 °C. The IC50 on substance P receptor is 0.17 nM. For the same molecule, the ED50 in data set [1] worked out at 1.6 µg/kg.
`C[C@@H]1CCn2c(c(-c3ccccc3)c3cccnc3c2=O)C(=O)N(Cc2cc(C(F)(F)F)cc(C(F)(F)F)c2)C1` [Reference Example 71, (9R)-7-[3,5-Bis(trifluoromethyl)benzyl]-6,7,8,9,10,11-hexahydro-9-methyl-6,13-dioxo-5-phenyl-13H-[1,4]diazocino[2,1-g] [1,7]naphthyridine] displayed a melting point of 245 to 247 °C. This molecule also had an IC50 on substance P receptor of 0.23 nM. For the same molecule, the ED50 in data set [1] was found to be 1.9 µg/kg.
In turn, `O=C1c2c(-c3ccccc3)ccnc2OCCCN1Cc1cc(C(F)(F)F)cc(C(F)(F)F)c1` [Reference Example 76, 5-[3,5-Bis(trifluoromethyl)benzyl]-2,3,4,5-tetrahydro-6-oxo-7-phenyl-6H-pyrido[2,3-b][1,5]oxazocine] had a melting point of 188 to 189 °C. For the same molecule, at human NK2 receptor, the IC50 is 7.5 nM.
`Cc1cnc2c(c1-c1ccccc1)C(=O)N(Cc1cc(C(F)(F)F)cc(C(F)(F)F)c1)CCO2` [Reference Example 77, 4-[3,5-Bis(trifluoromethyl)benzyl]-2,3,4,5-tetrahydro-7-methyl-5-oxo-6-phenylpyrido[3,2-f][1,4]oxazepine] displayed an IC50 on substance P receptor of 1.1 nM. Further, the “Degree of Inhibition (%)” value in data set [1] (Dosage (i.v.) 100 μg/kg) is listed as 64.0* %.
The molecule `O=C1c2c(-c3ccccc3)c3cccnc3c(=O)n2CCCCN1Cc1ccccc1` [Reference Example 81, 7-Benzyl-6,7,8,9,10,11-hexahydro-6,13-dioxo-5-phenyl-13H-[1,4]diazocino[2,1-g][1,7]naphthyridine] had an IC50 on human NK2 receptor of 6.2 nM.
In turn, `Cc1cc(-c2ccccc2)c2c(n1)OCCN(Cc1cc(C(F)(F)F)cc(C(F)(F)F)c1)C2=O` [Reference Example 87, 4-[3,5-Bis(trifluoromethyl)benzyl]-2,3,4,5-tetrahydro-8-methyl-5-oxo-6-phenylpyrido[3,2-f][1,4]oxazepine] displayed a melting point of 151 to 153 °C. Moreover, the IC50 at human NK2 receptor came to 9.5 nM.
As for `C[C@@H]1CCn2c(c(-c3ccc(CO)cc3)c3cccnc3c2=O)C(=O)N(Cc2cc(C(F)(F)F)cc(C(F)(F)F)c2)C1` [Reference Example 137, (9R)-7-[3,5-bis(trifluoromethyl)benzyl]-6,7,8,9,10,11-hexahydro-5-(4-hydroxymethylphenyl)-9-methyl-6,13-dioxo-13H-[1,4]diazosino[2,1-g][1,7]napththylidine], the melting point was 240 to 241 °C. Moreover, on substance P receptor, the IC50 turned out to be 0.84 nM. In data set [1], the ED50 came out at 2.5 µg/kg.
